Results published in PMC12172689 (ACS infectious diseases, 2025).
Where a chain is given by its changes, count along the chain named.

Tests used:
[1] = tested on: RH-strain T. gondii tachyzoites; test: Determination of mutagen concentration killing T. gondii tachyzoites; type: cell-based, Toxoplasma gondii; conditions: RH-strain tachyzoites expressing β-galactosidase and GFP
[2] = tested on: T. gondii TgMAPKL1 parental strain (RH, β-galactosidase transgene); test: T. gondii proliferation inhibition assay, β-galactosidase readout, parent strain; type: cell-based, Toxoplasma gondii; conditions: read-out: TgMAPKL1 Parental EC50 (95% CI), β-galactosidase activity, 72 h
[3] = tested on: T. gondii with a L162Q substitution in TgMAPKL1; test: T. gondii proliferation inhibition assay, β-galactosidase readout, TgMAPKL1 L162Q strain; type: cell-based, Toxoplasma gondii; conditions: for EC50: read-out: TgMAPKL1 L162Q EC50 (95% CI), TgMAPKL1 L162Q strain, β-galactosidase activity, 72 h; for Fold Increase EC50: TgMAPKL1 L162Q vs parent strain, β-galactosidase assay
TgCDPK1 128G = target: T1, TgCDPK1 128G (Toxoplasma gondii, UniProt Q9BJF5); test: TgCDPK1 enzyme inhibition assay (Kinase Glo), wild type glycine gatekeeper; type: biochemical; conditions: read-out: TgCDPK1 128G IC50, 10 μM ATP
T1 sequence (Q9BJF5 1-507): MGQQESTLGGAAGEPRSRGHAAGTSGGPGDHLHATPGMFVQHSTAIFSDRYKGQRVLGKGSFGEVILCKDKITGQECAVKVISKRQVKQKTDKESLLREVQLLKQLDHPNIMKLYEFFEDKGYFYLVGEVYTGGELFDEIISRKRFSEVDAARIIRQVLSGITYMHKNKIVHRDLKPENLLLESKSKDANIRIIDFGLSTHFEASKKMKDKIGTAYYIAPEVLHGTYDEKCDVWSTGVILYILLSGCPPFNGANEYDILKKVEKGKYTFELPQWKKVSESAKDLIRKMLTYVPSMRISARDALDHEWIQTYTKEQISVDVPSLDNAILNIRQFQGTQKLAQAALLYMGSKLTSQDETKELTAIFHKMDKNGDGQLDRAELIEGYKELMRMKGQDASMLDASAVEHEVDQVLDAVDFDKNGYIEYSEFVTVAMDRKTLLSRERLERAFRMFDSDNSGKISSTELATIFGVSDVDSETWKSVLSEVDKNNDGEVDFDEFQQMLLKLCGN

TgCDPK1 128M = target: T2, TgCDPK1 128M (Toxoplasma gondii, UniProt Q9BJF5, G128M); test: TgCDPK1 enzyme inhibition assay (Kinase Glo), methionine gatekeeper mutant; type: biochemical; conditions: for Fold Increase IC50: TgCDPK1 128M vs 128G; for IC50: read-out: TgCDPK1 128M IC50, introduced methionine gatekeeper, 10 μM ATP
T2 sequence (Q9BJF5 1-507 G128M): T1 sequence (Q9BJF5 1-507) with G128M

T. gondii parent strain = test: T. gondii proliferation inhibition, remaining host cell nuclei (DAPI), parent strain; type: cell-based, Toxoplasma gondii; conditions: read-out: parent EC50 (95% CI), 5 days
T. gondii TgMAPKL1 L162Q = test: T. gondii proliferation inhibition, remaining host cell nuclei (DAPI), TgMAPKL1 L162Q strain; type: cell-based, Toxoplasma gondii; conditions: for EC50: read-out: TgMAPKL1 L162Q EC50 (95% CI), remaining host cell nuclei, 5 days
T. gondii TgCDPK1 G128M = test: T. gondii proliferation inhibition, remaining host cell nuclei (DAPI), TgCDPK1 G128M strain; type: cell-based, Toxoplasma gondii
T. gondii TgCDPK1 G128T = test: T. gondii proliferation inhibition, remaining host cell nuclei (DAPI), TgCDPK1 G128T strain; type: cell-based, Toxoplasma gondii; conditions: read-out: TgCDPK1 G128T EC50 (95% CI), 5 days
[4] = tested on: T. gondii TgCDPK1 G128M TgMAPKL1 L162Q; test: T. gondii proliferation inhibition, remaining host cell nuclei (DAPI), double mutant G128M/L162Q; type: cell-based, Toxoplasma gondii; conditions: for EC50: read-out: TgCDPK1 G128M TgMAPKL1 L162Q EC50 (95% CI), double mutant, remaining host cell nuclei, 5 days
T. gondii cell cycle = conditions: cited from earlier work
T. gondii TgMAPKL1 S191Y = conditions: cited from earlier work
[5] = vs parent strain, host cell nuclei assay

## CCN(N=O)C(N)=O [ENU, N-ethyl-N-nitrosourea]
[1]
  concentration required to kill 70% of a population of tachyzoites: 2 mM

## CCOc1ccc2cc(-c3nn(C(C)(C)C)c(N)c3C(N)=O)cnc2c1 [BKI-1517]
[2]
  EC50: 80 nM
[3]
  EC50: 290 nM

## CCOc1ccc2cc(-c3nn(CC4CCN(C)CC4)c4ncnc(N)c34)ccc2n1 [BKI-1369]
[2]
  EC50: 38 nM
[3]
  Fold Increase EC50: 3.20 fold
  EC50: 120 nM
TgCDPK1 128G
  IC50: 6 nM
TgCDPK1 128M
  Fold Increase IC50: 2246 fold
  IC50: 13700 nM

## CCOc1ccc2cc(-c3nn(CC4CCN(C)CC4)c4ncnc(N)c34)ccc2c1 [BKI-1294]
[2]
  EC50: 22 nM
[3]
  EC50: 66 nM
T. gondii parent strain
  EC50: 230 nM
T. gondii TgMAPKL1 L162Q
  EC50: 450 nM
T. gondii TgCDPK1 G128M; read-out: TgCDPK1 G128M EC50 (95% CI), remaining host cell nuclei, 5 days
  EC50: 1500 nM
T. gondii TgCDPK1 G128T
  EC50: 1700 nM
[4]
  EC50: 3200 nM

## CCOc1ccc2cc(-c3nn(C4CCOCC4)c(N)c3C(N)=O)ccc2n1 [BKI-1841]
[2]
  EC50: 140 nM
[3]
  Fold Increase EC50: 2.90 fold
  EC50: 400 nM
TgCDPK1 128G
  IC50: 30 nM
TgCDPK1 128M
  Fold Increase IC50: 585 fold
  IC50: 17600 nM

## Cc1cccc(-c2[nH]c(C(C)(C)C)nc2-c2ccc3c(c2)OCO3)n1 [SB505124]
T. gondii cell cycle
  effect on T. gondii cell cycle: arrested the T. gondii cell cycle

## CC(C)(C)n1nc(Cc2cccc3ccccc23)c2c(N)ncnc21 [1-NM-PP1]
T. gondii parent strain
  EC50: 19 nM
T. gondii TgMAPKL1 L162Q
  EC50: 75 nM
T. gondii TgMAPKL1 L162Q; [5]
  TgMAPKL1 L162Q fold increase EC50: 3.9 fold
T. gondii TgCDPK1 G128M; [5]
  TgCDPK1 G128M fold increase EC50: 7.4 fold
[4]; double mutant vs parent strain, host cell nuclei assay
  TgCDPK1 G128M TgMAPKL1 L162Q fold increase EC50: 89.5 fold
[4]
  EC50: 1700 nM
T. gondii TgMAPKL1 S191Y
  resistance conferred by TgMAPKL1 S191Y substitution: conferred resistance
